Reference: US10640498B2, “Compounds” (MISSION THERAPEUTICS LIMITED, priority 2016, dated 2020)

Molecular target: USP30 (Homo sapiens (Human), UniProt Q70CQ3)
Test: USP30 biochemical IC50 assay (fluorescence polarisation)
Conditions: enzyme and compound incubated 30 min at room temp; TAMRA labelled peptide-ubiquitin substrate 50 nM; read after 2 hr incubation; read-out: IC50 range
Protocol: USP30 Biochemical IC50 Assay
Dilution plates were prepared at 21 times the final concentration ([…] for a final concentration of 100 μM) in 50% DMSO in a 96-well polypropylene V-bottom plate (Greiner #651201). A typical 8-point dilution series to be 100, 30, 10, 3, 1, 0.3, 0.1, […].
Reactions were performed in duplicate in black 384 well plates (small volume, Greiner 784076) in a final reaction volume of 21 μl. Either 1 μl of 50% DMSO or diluted compound was added to the plate. USP30 was diluted in reaction buffer (40 mM Tris, pH 7.5, 0.005% Tween 20, 0.5 mg/ml BSA, 5 mM beta-mercaptoethanol) to the equivalent of 0.05 µl/well and 10 μl of diluted USP30 was added to the compound. Enzyme and compound were incubated for 30 min at room temp. Reactions were initiated by the addition of 50 nM of TAMRA labelled peptide linked to ubiquitin via an iso-peptide bond as fluorescence polarisation substrate. Reactions were read immediately after addition of substrate and following a 2 hr incubation at room temperature. Readings were performed on a Pherastar Plus (BMG Labtech). λ Excitation 540 nm; λ Emission 590 nm.

Chain of USP30 (Q70CQ3 57-517): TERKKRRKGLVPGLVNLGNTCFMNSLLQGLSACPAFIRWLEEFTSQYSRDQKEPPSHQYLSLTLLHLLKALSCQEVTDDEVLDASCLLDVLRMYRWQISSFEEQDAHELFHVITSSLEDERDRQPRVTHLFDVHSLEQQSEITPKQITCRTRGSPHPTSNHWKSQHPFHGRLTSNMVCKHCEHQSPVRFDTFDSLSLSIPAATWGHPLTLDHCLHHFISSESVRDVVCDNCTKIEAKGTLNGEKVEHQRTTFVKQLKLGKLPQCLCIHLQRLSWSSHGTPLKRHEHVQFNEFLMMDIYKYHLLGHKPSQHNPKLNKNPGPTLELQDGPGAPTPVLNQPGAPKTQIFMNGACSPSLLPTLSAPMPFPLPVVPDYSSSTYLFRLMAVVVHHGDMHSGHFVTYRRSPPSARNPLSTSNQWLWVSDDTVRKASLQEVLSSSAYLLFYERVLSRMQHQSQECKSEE

Compound	IC50
N#CN1CC[C@](F)(C(=O)N2CCc3cc(-c4cccc(Cl)c4)cnc32)C1 [Example 56, (R)-3-(5-(3-Chlorophenyl)-2,3-dihydro-1H-pyrrolo[2,3-b]pyridine-1-carbonyl)-3-fluoropyrrolidine-1-carbonitrile]	< 100 nM
CC(C)Cn1nccc1-c1ccc2c(c1)CCN2C(=O)C1(F)CCN(C#N)C1 (stereo not shown) [Example 58, 3-Fluoro-3-(5-(1-isobutyl-1H-pyrazol-5-yl)indoline-1-carbonyl)pyrrolidine-1-carbonitrile]	1000 to 10000 nM
N#CN1CCC(F)(C(=O)N2CCc3cc(-c4cnn(Cc5ccccc5)c4)ccc32)C1 (stereo not shown) [Example 59, 3-(5-(1-Benzyl-1H-pyrazol-4-yl)indoline-1-carbonyl)-3-fluoropyrrolidine-1-carbonitrile]	1000 to 10000 nM
N#CN1CC[C@H](C(=O)N2CCc3cc(-c4cccc5[nH]ncc45)cnc32)C1 [Example 60, (S)-3-(5-(1H-indazol-4-yl)-2,3-dihydro-1H-pyrrolo[2,3-b]pyridine-1-carbonyl)-pyrrolidine-1-carbonitrile]	100 to 1000 nM
N#CN1CC[C@@H](C(=O)N2CCc3cc(-c4cccc5[nH]ncc45)cnc32)C1 [Example 61, (R)-3-(5-(1H-Indazol-4-yl)-2,3-dihydro-1H-pyrrolo[2,3-b]pyridine-1-carbonyl)-pyrrolidine-1-carbonitrile]	1000 to 10000 nM
N#CN1CCC(F)(C(=O)N2CCc3cc(-c4ccnn4Cc4ccccn4)ccc32)C1 (stereo not shown) [Example 62, 3-Fluoro-3-(5-(1-(pyridin-2-ylmethyl)-1H-pyrazol-5-yl)indoline-1-carbonyl)pyrrolidine-1-carbonitrile]	1000 to 10000 nM
N#CN1CCC(F)(C(=O)N2CCc3cc(-c4ccnn4Cc4cccnc4)ccc32)C1 (stereo not shown) [Example 63, 3-Fluoro-3-(5-(1-(pyridin-3-ylmethyl)-H-pyrazol-5-yl)indoline-1-carbonyl)pyrrolidine-1-carbonitrile]	1000 to 10000 nM
N#CN1CCC(F)(C(=O)N2CCc3cc(-c4ccnn4Cc4ccccc4Cl)ccc32)C1 (stereo not shown) [Example 64, 3-(5-(1-(2-Chlorobenzyl)-1H-pyrazol-5-yl)indoline-1-carbonyl)-3-fluoropyrrolidine-1-carbonitrile]	1000 to 10000 nM
N#CN1CCC(F)(C(=O)N2CCc3cc(-c4ccnn4Cc4cccc(Cl)c4)ccc32)C1 (stereo not shown) [Example 65, 3-(5-(1-(3-Chlorobenzyl)-1H-pyrazol-5-yl)indoline-1-carbonyl)-3-fluoropyrrolidine-1-carbonitrile]	100 to 1000 nM
N#CN1CCC(F)(C(=O)N2CCc3cc(-c4ccnn4Cc4ccc(Cl)cc4)ccc32)C1 (stereo not shown) [Example 66, 3-(5-(1-(4-Chlorobenzyl)-1H-pyrazol-5-yl)indoline-1-carbonyl)-3-fluoropyrrolidine-1-carbonitrile]	100 to 1000 nM
N#CN1CCC(F)(C(=O)N2CCc3cc(C(=O)NCc4ccccc4)ccc32)C1 (stereo not shown) [Example 67, N-Benzyl-1-(1-cyano-3-fluoropyrrolidine-3-carbonyl)indoline-5-carboxamide]	1000 to 10000 nM
CCc1cccc(-c2cc(C(=O)NC)cc3c2CCN3C(=O)[C@@H]2CCN(C#N)C2)c1 [Example 68, (R)-1-(1-Cyanopyrrolidine-3-carbonyl)-4-(3-ethylphenyl)-N-methylindoline-6-carboxamide]	100 to 1000 nM
CNC(=O)c1cc(-c2ccccc2)c2c(c1)N(C(=O)[C@@H]1CCN(C#N)C1)CC2 [Example 69, (R)-1-(1-Cyanopyrrolidine-3-carbonyl)-N-methyl-4-phenylindoline-6-carboxamide]	1000 to 10000 nM
